Source: ChEMBL document CHEMBL1201862, “PubChem BioAssay data set” (2004)
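Tested at 5 concentrations; 48 h exposure; 96-well plates; endpoints linearly interpolated, else capped at highest concentration. At the GI50, growth is halved.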 The source made the active and inactive calls. Rule as the data show it: active = GI50 up to about 1.1 µM and inactive = higher.

How the values were obtained:
Experiment in all cases: growth of human tumour cells (NCI), 48 h
[1] = tested on: RXF 393
[2] = tested on: OVCAR-3
[3] = tested on: U-251
[4] = tested on: M14
[5] = tested on: CAKI-1
[6] = tested on: HOP-92
[7] = tested on: COLO 205
[8] = tested on: SNB-19
[9] = tested on: SK-MEL-2
[10] = tested on: SNB-75
[11] = tested on: SF-295
[12] = tested on: IGROV-1
[13] = tested on: M19-MEL
[14] = tested on: 786-0
[15] = tested on: SK-MEL-5
[16] = tested on: KM12
[17] = tested on: SR
[18] = tested on: Hs-578T
[19] = tested on: BT-549
[20] = tested on: DU-145

Compound | GI50 [1] | GI50 [2] | GI50 [3] | GI50 [4] | GI50 [5] | GI50 [6] | GI50 [7] | GI50 [8] | GI50 [9] | GI50 [10] | GI50 [11] | GI50 [12] | GI50 [13] | GI50 [14] | GI50 [15] | GI50 [16] | GI50 [17] | GI50 [18] | GI50 [19] | GI50 [20]
CC(=O)Nc1ccccc1Sc1ccccc1 | 74.5 µM (inactive) | 2.6 µM (inactive) | > 100 µM (inactive) | > 100 µM (inactive) | 69.8 µM (inactive) | 69.8 µM (inactive) | > 100 µM (inactive) | > 100 µM (inactive) | > 100 µM (inactive) | 39.3 µM (inactive) | > 100 µM (inactive) | > 100 µM (inactive) | > 100 µM (inactive) | > 100 µM (inactive) | > 100 µM (inactive) | > 100 µM (inactive) |  |  |  | 
Cn1nc(-c2ccccc2)c(C(=O)/C=C/c2ccc(Cl)cc2)c(N2CCCC2)c1=O | 2.63 µM (inactive) |  | 4.27 µM (inactive) | 5.33 µM (inactive) | 0.55 µM (active) | 1.67 µM (inactive) | 2.11 µM (inactive) | 10 µM (inactive) |  |  | 0.632 µM (active) | 6.31 µM (inactive) | 7.24 µM (inactive) | 3.13 µM (inactive) | 5.46 µM (inactive) |  |  |  |  | 
COC1(C)CNCC(C)(C)NC(=O)C(C)(OC)CNCC(C)(C)NC1=O (centres undefined) | > 100 µM (inactive) | > 100 µM (inactive) | > 100 µM (inactive) | > 100 µM (inactive) | > 100 µM (inactive) | > 100 µM (inactive) | > 100 µM (inactive) | > 100 µM (inactive) | > 100 µM (inactive) | > 100 µM (inactive) | > 100 µM (inactive) | > 100 µM (inactive) | > 100 µM (inactive) | > 100 µM (inactive) | > 100 µM (inactive) | > 100 µM (inactive) |  |  |  | 
CC1=NN(C(=O)c2ccc(Cl)cc2)C(=O)/C1=C/c1c(O)cc(O)c2ccccc12 | > 100 µM (inactive) | > 100 µM (inactive) | > 100 µM (inactive) | > 100 µM (inactive) | > 100 µM (inactive) | > 100 µM (inactive) | > 100 µM (inactive) | > 100 µM (inactive) | > 100 µM (inactive) |  | > 100 µM (inactive) | > 100 µM (inactive) | > 100 µM (inactive) | > 100 µM (inactive) | > 100 µM (inactive) | > 100 µM (inactive) |  |  |  | 
Nc1ncnc2c1ncn2C1OC(CSCc2ccc(Cl)cc2)C(O)C1O (centres undefined) | 21.2 µM (inactive) | 32.1 µM (inactive) | 66.2 µM (inactive) | 17.1 µM (inactive) | 21.5 µM (inactive) | 4.18 µM (inactive) | 40.4 µM (inactive) | 35.9 µM (inactive) | 25.5 µM (inactive) | 18.3 µM (inactive) | 50.9 µM (inactive) | 89.3 µM (inactive) | 33.7 µM (inactive) | 34.1 µM (inactive) | 33.8 µM (inactive) | 24.2 µM (inactive) |  |  |  | 
CN(C)Cc1cc(/N=N/c2ccc(Cl)cc2)cc(CN(C)C)c1O | 9.44 µM (inactive) | 1.84 µM (inactive) | 7.24 µM (inactive) | 14.5 µM (inactive) | 12.1 µM (inactive) | 2.45 µM (inactive) | 3.99 µM (inactive) | 10.6 µM (inactive) | 12.9 µM (inactive) | 10.9 µM (inactive) | 11.8 µM (inactive) | 3.38 µM (inactive) |  | 5.53 µM (inactive) | 8.79 µM (inactive) | 6.55 µM (inactive) | 4.59 µM (inactive) | 11.3 µM (inactive) | 11 µM (inactive) | 16.9 µM (inactive)
COC(CC1(OC)OC(=O)C=C1N)OC (centres undefined) |  | > 100 µM (inactive) | > 100 µM (inactive) | > 100 µM (inactive) |  | > 100 µM (inactive) | > 100 µM (inactive) | > 100 µM (inactive) | > 100 µM (inactive) | 76.7 µM (inactive) | > 100 µM (inactive) | > 100 µM (inactive) | > 100 µM (inactive) | > 100 µM (inactive) | > 100 µM (inactive) | > 100 µM (inactive) | > 100 µM (inactive) |  |  | 
C=C1C(=O)OC2/C=C(/C)C3CC(O)C(C)(CC(OC(=O)/C(C)=C/C)C12)O3 (centres undefined) | 1.52 µM (inactive) | 3.78 µM (inactive) | 9.04 µM (inactive) | 2.91 µM (inactive) | 1.97 µM (inactive) | 2.98 µM (inactive) | 1.52 µM (inactive) | 1.97 µM (inactive) | 2.49 µM (inactive) | 9.04 µM (inactive) | > 39.4 µM (inactive) | 5.26 µM (inactive) | 2.96 µM (inactive) | 3.29 µM (inactive) | 4.68 µM (inactive) | 3.33 µM (inactive) |  |  |  | 
CCOC(=O)NC(=O)c1cn(CCCOC(=O)NCCCCCCNC(=O)OCCCn2cc(C(=O)NC(=O)OCC)c(=O)[nH]c2=O)c(=O)[nH]c1=O | > 10 µM (inactive) | 17.4 µM (inactive) | 18.1 µM (inactive) | 20.4 µM (inactive) | 11.9 µM (inactive) | 24.3 µM (inactive) | 19.8 µM (inactive) | 28.6 µM (inactive) |  | 23.3 µM (inactive) | 22.5 µM (inactive) | 41.9 µM (inactive) | 31.9 µM (inactive) | 20 µM (inactive) | 37.5 µM (inactive) |  |  |  |  | 
CCOC(=O)C1=C(c2ccccc2)NC(c2ccccc2)=C(C(=O)OCC)c2c1c(=O)cc[nH]c2=O |  | > 100 µM (inactive) | > 100 µM (inactive) | > 100 µM (inactive) | > 100 µM (inactive) | 71.6 µM (inactive) | > 100 µM (inactive) | > 100 µM (inactive) | > 100 µM (inactive) | > 100 µM (inactive) | 86.7 µM (inactive) | > 100 µM (inactive) | > 100 µM (inactive) | > 100 µM (inactive) |  | > 100 µM (inactive) | 83.8 µM (inactive) |  |  | 
Cn1cc(NC(=O)c2cc(NC(=O)CCCCCC(=O)Nc3cc(C(=O)Nc4cc(C(=O)NCCC(=N)N)n(C)c4)n(C)c3)cn2C)cc1C(=O)NCCC(=N)N | > 100 µM (inactive) | > 100 µM (inactive) | > 100 µM (inactive) | > 100 µM (inactive) | > 100 µM (inactive) | > 100 µM (inactive) | > 100 µM (inactive) | > 100 µM (inactive) |  | > 100 µM (inactive) | > 100 µM (inactive) | 98.6 µM (inactive) | 15.2 µM (inactive) | > 100 µM (inactive) | 51.3 µM (inactive) | 73.8 µM (inactive) |  |  |  | 
O=c1c2cc3c(cc2[nH]c2ncccc12)OCO3 | > 10 µM (inactive) | > 10 µM (inactive) | > 10 µM (inactive) | > 10 µM (inactive) | > 10 µM (inactive) | > 10 µM (inactive) | > 10 µM (inactive) | > 10 µM (inactive) | > 10 µM (inactive) | > 10 µM (inactive) | > 10 µM (inactive) | > 10 µM (inactive) |  | > 10 µM (inactive) | > 10 µM (inactive) | > 10 µM (inactive) | > 10 µM (inactive) | > 10 µM (inactive) | > 10 µM (inactive) | > 10 µM (inactive)
O=[N+]([O-])/C(Cl)=C(\NCCO)C(Cl)=C(Cl)Cl | 56.1 µM (inactive) | 60.4 µM (inactive) | > 93.3 µM (inactive) | 38.8 µM (inactive) | > 86.7 µM (inactive) | > 84.5 µM (inactive) | 27.5 µM (inactive) | > 100 µM (inactive) | > 100 µM (inactive) | > 80.2 µM (inactive) | > 100 µM (inactive) | > 100 µM (inactive) |  | 45 µM (inactive) | > 96.4 µM (inactive) | > 89.1 µM (inactive) | 20.5 µM (inactive) | > 65.5 µM (inactive) | > 79.8 µM (inactive) | > 100 µM (inactive)
N#C/C(=C/c1cccc2ccccc12)C(=O)c1ccccc1 |  | 48.6 µM (inactive) | 19 µM (inactive) | 16.9 µM (inactive) | 23.9 µM (inactive) |  |  | 19.9 µM (inactive) | 18.9 µM (inactive) |  | 20 µM (inactive) | 24.3 µM (inactive) | 28.4 µM (inactive) | 16.3 µM (inactive) | > 10 µM (inactive) | 20.9 µM (inactive) | 26.9 µM (inactive) |  |  | 
Cc1cccc(NC(=S)N/N=C(/c2ccccc2)c2ccccn2)c1 | 0.667 µM (active) | < 0.0182 µM (active) | 0.0299 µM (active) | < 0.01 µM (active) | 0.249 µM (active) | 0.484 µM (active) | < 0.0163 µM (active) | 3.6 µM (inactive) | 2.49 µM (inactive) | 0.991 µM (active) | 0.173 µM (active) | < 0.0182 µM (active) |  | 0.948 µM (active) | 0.108 µM (active) | 0.0796 µM (active) | < 0.0144 µM (active) | 9.02 µM (inactive) | 2.5 µM (inactive) | 0.942 µM (active)
O=C(c1ccccc1)N1C2C3CC(OCc4ccccc4)(OCc4ccccc4)C(O3)C21 (centres undefined) | > 100 µM (inactive) |  | > 100 µM (inactive) | > 100 µM (inactive) | > 100 µM (inactive) | > 100 µM (inactive) | > 100 µM (inactive) | > 100 µM (inactive) | > 100 µM (inactive) | > 100 µM (inactive) |  | > 100 µM (inactive) | > 100 µM (inactive) | > 100 µM (inactive) | > 100 µM (inactive) |  |  |  |  | 
COc1cc2c(c(OC)c1OC)-c1ccc(SC)c(=O)cc1[C@@H](NC(=O)c1cccc([N+](=O)[O-])c1)CC2 |  | 0.0191 µM (active) | 0.0221 µM (active) | 0.0154 µM (active) | 0.049 µM (active) |  | 0.0168 µM (active) |  |  | 0.0264 µM (active) | 0.0208 µM (active) | 0.0288 µM (active) | 0.0296 µM (active) | 0.0351 µM (active) | 0.0179 µM (active) | < 0.01 µM (active) |  |  |  | 
